These results are taken from paper PMC6225212, “Synthesis and Pharmacological Evaluation of Novel Silodosin-Based Arylsulfonamide Derivatives as α1A/α1D-Adrenergic Receptor Antagonist with Potential Uroselective Profile” (Molecules : A Journal of Synthetic Chemistry and Natural …, 2018).

Test [1] concerns α1-ARs. Description: Radioligand binding, displacement of [3H]-Prazosin from α1-ARs on rat cerebral cortex. As to conditions: for Sα2/α1 (ratio of affinity for α2- and α1-ARs): Ki α2 / Ki α1; for Ki: [3H]-Prazosin, rat cerebral cortex, ± SEM, two independent experiments. On the procedure: (§1) The pharmacological profile of the new compounds was assessed in radioligand-binding assays as the ability to displace [^3H]-Prazosin or [^3H]-Clonidine from α1- and α2-ARs, respectively, on rat cerebral cortex. The inhibition constants (Ki) were calculated from the Cheng-Prusoff equation [24].
(§2) The affinity of the obtained compounds was evaluated by radioligand-binding assays (the ability to displace [^3H]-Prazosin and [^3H]-Clonidine from α1- and α2-ARs, respectively) on rat cerebral cortex. The brains are homogenized in 20 volumes of an ice-cold 50 mM Tris-HCl buffer (pH 7.6) and is centrifuged (MPW Med. Instruments, Warsaw, Poland) at 20,000 g for 20 min (0–4 °C). The cell pellet is resuspended in the Tris-HCl buffer and centrifuged again. Radioligand-binding assays are performed in plates (MultiScreen/Millipore, Burlington, MA, USA). The final incubation mixture (final volume 300 µL) consisted of 240 µL of the membrane suspension, 30 µL of [^3H]-Prazosin (0.2 nM) or [^3H]-Clonidine (2 nM) solution, and 30 µL of the buffer containing seven to eight concentrations (10^−11 to 10^−4 M) of the tested compounds. For measuring the unspecific binding, phentolamine, 10 µM (in the case of [^3H]-Prazosin) and clonidine, and 10 µM (in the case of [^3H]-Clonidine), were applied. The incubation was terminated by rapid filtration over glass fiber filters (Whatman GF/C, Sigma-Aldrich) using a vacuum manifold (Millipore). The filters were then washed twice with the assay buffer and placed in scintillation vials with a liquid-scintillation cocktail. Radioactivity was measured in a WALLAC 1409 DSA liquid-scintillation counter (BioSurplus, San Diego, CA, USA). All the assays were made in duplicate.

Test [2] addresses α2-ARs. Description: Radioligand binding, displacement of [3H]-Clonidine from α2-ARs on rat cerebral cortex. As to conditions: ± SEM, two independent experiments. On the procedure: as §1, §2
Another test has as its target T1, α1D-ARs (Homo sapiens, UniProt P25100).
T1 sequence (P25100 1-572): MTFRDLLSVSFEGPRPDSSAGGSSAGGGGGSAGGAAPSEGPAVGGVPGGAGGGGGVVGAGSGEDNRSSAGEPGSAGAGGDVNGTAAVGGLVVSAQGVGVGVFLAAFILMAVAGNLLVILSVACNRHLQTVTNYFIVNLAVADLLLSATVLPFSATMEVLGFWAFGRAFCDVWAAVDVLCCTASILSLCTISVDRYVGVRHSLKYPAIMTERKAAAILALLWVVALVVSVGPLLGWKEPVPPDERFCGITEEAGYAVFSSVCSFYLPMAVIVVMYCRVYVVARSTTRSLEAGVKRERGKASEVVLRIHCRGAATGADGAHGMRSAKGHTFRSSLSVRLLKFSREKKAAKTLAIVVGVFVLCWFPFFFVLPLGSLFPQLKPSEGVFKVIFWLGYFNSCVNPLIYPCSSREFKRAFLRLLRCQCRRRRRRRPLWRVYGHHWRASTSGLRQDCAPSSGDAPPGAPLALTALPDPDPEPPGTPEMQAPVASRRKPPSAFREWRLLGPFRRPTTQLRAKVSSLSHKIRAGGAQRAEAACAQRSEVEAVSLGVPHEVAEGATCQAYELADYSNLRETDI
Description: Intrinsic activity at α1D-ARs, aequorin calcium mobilization luminescence. The format is cell-based. Set-up: key to α1D Profile: ANT—antagonist; AGO—agonist. As to conditions: for α1D Profile: functional profile; for IC50: antagonist mode. On the procedure: (§3) The intrinsic activity at α1A-ARs of the selected compounds was assessed by fluorescence detection (Invitrogen, Thermo Fisher Scientific, Carlsbad, CA, USA) of β-lactamase reporter genes using a FRET-enabled substrate. The intrinsic activity at α1B-ARs and α1D-ARs was determined by luminescence detection (PerkinElmer, Zaventem, Belgium) of calcium mobilization using the recombinant-expressed jellyfish photoprotein (Aequorin).
(§4) Intrinsic activity assay to α1B- and α1D-ARs was performed according to the manufacturer of the ready-to-use cells with stable expression of the α1B-adrenoreceptors and α1D-adrenoreceptors, respectively (PerkinElmer, Zaventem, Belgium). For measurement, cells (frozen, ready to use) were thawed and resuspended in 10 mL of assay buffer containing 5 µM coelenterazine h. This cells suspension was put in a 10 mL Falcon tube, fixed onto a rotating heel, and incubated for overnight at rt in the dark (8 rpm; 45° angle). Cells were diluted with Assay Buffer to 5000 cells/20 µL. Agonistic ligands 2 × (50 µL/well), diluted in Assay Buffer, were prepared in ½ white polystyrene area plates, and the cell suspension was dispensed in 50 µL volume on the ligands using the injector. The light emitted was recorded for 20 s. Cells with antagonist were incubated for 15 min at room temperature. Thereafter, 50 µL of agonist (3 × EC80 final concentration) was injected into the mix of cells and antagonist and the light emitted was recorded for 20 s.

The next test concerns the target T2, α1B-ARs (Homo sapiens, UniProt P35368).
T2 sequence (P35368 1-520): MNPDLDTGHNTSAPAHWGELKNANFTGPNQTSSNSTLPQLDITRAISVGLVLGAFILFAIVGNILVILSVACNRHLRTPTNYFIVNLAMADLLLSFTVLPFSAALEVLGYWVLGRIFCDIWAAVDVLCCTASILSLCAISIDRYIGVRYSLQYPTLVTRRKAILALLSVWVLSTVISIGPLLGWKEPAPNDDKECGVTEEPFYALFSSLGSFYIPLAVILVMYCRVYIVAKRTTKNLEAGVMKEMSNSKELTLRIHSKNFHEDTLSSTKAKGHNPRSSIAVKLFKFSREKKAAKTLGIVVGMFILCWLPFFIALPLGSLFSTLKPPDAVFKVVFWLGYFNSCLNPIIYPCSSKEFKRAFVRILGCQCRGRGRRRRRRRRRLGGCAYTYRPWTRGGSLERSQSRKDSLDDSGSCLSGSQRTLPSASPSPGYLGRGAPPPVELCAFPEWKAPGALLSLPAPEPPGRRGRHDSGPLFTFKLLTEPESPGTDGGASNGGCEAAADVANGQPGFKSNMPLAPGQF
Description: Intrinsic activity at α1B-ARs, aequorin calcium mobilization luminescence. Type of test: cell-based. Set-up: key to α1B Profile: ANT—antagonist; AGO—agonist. To be noted: for α1B Profile: functional profile; for IC50: antagonist mode, three independent experiments. The procedure:
as §3, §4

A further test deals with T3, α1A-ARs (Homo sapiens, UniProt P35348).
T3 sequence (P35348 1-466): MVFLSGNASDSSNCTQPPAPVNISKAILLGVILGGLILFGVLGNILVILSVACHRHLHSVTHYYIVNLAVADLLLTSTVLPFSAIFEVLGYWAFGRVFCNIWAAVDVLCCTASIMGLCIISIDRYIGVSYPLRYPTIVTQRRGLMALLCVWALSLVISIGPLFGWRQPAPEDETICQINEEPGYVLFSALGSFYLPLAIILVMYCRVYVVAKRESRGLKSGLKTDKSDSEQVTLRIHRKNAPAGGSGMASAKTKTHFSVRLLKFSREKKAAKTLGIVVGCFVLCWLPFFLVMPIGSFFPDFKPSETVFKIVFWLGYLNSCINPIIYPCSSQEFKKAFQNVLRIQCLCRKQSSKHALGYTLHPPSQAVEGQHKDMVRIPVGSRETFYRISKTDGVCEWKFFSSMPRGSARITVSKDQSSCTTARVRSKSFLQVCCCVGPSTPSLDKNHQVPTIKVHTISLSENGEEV
The test is described as follows: Intrinsic activity at α1A-ARs, β-lactamase reporter gene, FRET substrate. As to conditions: for α1A Profile: functional profile; for IC50: antagonist mode, three independent experiments. Set-up: key to α1A Profile: ANT—antagonist; AGO—agonist. Type of test: cell-based.

Test [3] deals with α2-ARs. Set-up: method as in PMID 27658792. To be noted: [3H]-Clonidine, rat cerebral cortex; ± SEM; cited from earlier work.
Test [4] concerns α1-ARs. Also noted: method as in PMID 27658792. As to conditions: cited from earlier work.
The mark [5] stands for this setting: antagonist, as worded in abstract and text, read-out: EC50(α1D).

Read-outs that look alike come from different tables or passages of the source. A value given as a limit tells only on which side of the number the result lay.

Description for α1A-ARs: The intrinsic activity at α1A-ARs of the selected compounds was assessed by fluorescence detection (Invitrogen, Thermo Fisher Scientific, Carlsbad, CA, USA) of β-lactamase reporter genes using a FRET-enabled substrate. […] Intrinsic activity assay was performed according to the manufacturer of the assay kit (Invitrogen, Thermo Fisher Scientific corporation, Carlsbad, CA, USA). The cells were harvested and suspended in Assay Medium to a density of 312,500 cells/mL. Of the cell suspension, 32 µL per well was added to the Test Compound wells, the Unstimulated Control wells, and Stimulated Control wells and incubated per 16–24 h. […] Then, both the agonist and the antagonist plate were incubated in a humidified 37 °C/5% CO2 incubator for 5 h. After the incubation 8 µL of LiveBLAzer™-FRET B/G Substrate Mixture (CCF4-AM, Thermo Fisher Scientific corporation) was loaded cells in the absence of direct strong lighting, covered, and incubated at room temperature for 2 h.

As to `O=S(=O)(N[C@H]1CCN(CCOc2ccccc2OCC(F)(F)F)C1)c1cc(Cl)ccc1F` [Compound 16, (S)-5-Chloro-2-fluoro-N-(1-{2-[(2,2,2-trifluoroethoxy)phenoxy]ethyl}pyrrolidin-3-yl)benzenesulfonamide], in the test with α1-ARs [1], the “Sα2/α1 (ratio of affinity for α2- and α1-ARs)” value was determined as 13; the Ki stood at 117 ± 10 nM. At α2-ARs [2], this molecule gave a Ki of 1470 ± 80 nM.
With `CNC[C@H](O)c1cccc(O)c1` [phenylephrine, reference compound], the EC50 on α1D-ARs (agonist mode, three independent experiments, read-out: α1D EC50) came out at 12.1 nM. Further, the “α1D Profile” value on α1D-ARs was “AGO”. Moreover, the “α1B Profile” value at α1B-ARs was “AGO”. Also, the “α1A Profile” value at α1A-ARs is “AGO ^b”.
`COc1ccc(S(=O)(=O)NCC2CCN(CCOc3ccccc3OCC(F)(F)F)CC2)cc1OC` [Compound 12, 3,4-Dimethoxy-N-[(1-{2-[(2,2,2-trifluoroethoxy)phenoxy]ethyl}piperidin-4-yl)methyl]benzenesulfonamide]: on α1D-ARs (three independent experiments), the IC50 turned out to be 2.6 nM. The EC50 at α1D-ARs (setting [5]) is 1.1 to 2.7 nM. Also, the “α1D Profile” value on α1D-ARs is on record as “ANT”. Besides, at α1B-ARs, the IC50 was 0.02 nM and the “α1B Profile” value was “ANT”. Moreover, at α1A-ARs, the IC50 worked out at 15 nM and the “α1A Profile” value is “ANT”. In the test on α1-ARs [1], the “Sα2/α1 (ratio of affinity for α2- and α1-ARs)” value is recorded as 27; the Ki is 19 ± 3 nM. In addition, on α2-ARs [2], the affinity corresponds to a Ki of 524 ± 31 nM.
As to `COc1ccc(Cl)cc1S(=O)(=O)NCC1CCN(CCOc2ccccc2OCC(F)(F)F)CC1` [Compound 11, 5-Chloro-2-methoxy-N-[(1-{2-[(2,2,2-trifluoroethoxy)phenoxy]ethyl}piperidin-4-yl)methyl]benzenesulfonamide], in the test with α1-ARs [1], the “Sα2/α1 (ratio of affinity for α2- and α1-ARs)” value is 12; the Ki was 95 ± 3 nM. The molecule further showed a Ki at α2-ARs [2] of 1090 ± 62 nM.
For `O=S(=O)(N[C@@H]1CCN(CCOc2ccccc2OCC(F)(F)F)C1)c1cc(Cl)ccc1F` [Compound 15, (R)-5-Chloro-2-fluoro-N-(1-{2-[(2,2,2-trifluoroethoxy)phenoxy]ethyl}pyrrolidin-3-yl)benzenesulfonamide], in that order: 7, 171 ± 4 nM and 1190 ± 74 nM.
The corresponding values for `COc1ccc(S(=O)(=O)N[C@H]2CCN(CCOc3ccccc3OCC(F)(F)F)C2)cc1OC` [Compound 18, (S)-3,4-Dimethoxy-N-(1-{2-[(2,2,2-trifluoroethoxy)phenoxy]ethyl}pyrrolidin-3-yl)benzenesulfonamide] are 16, 70 ± 1 nM and 1140 ± 42 nM.
The corresponding values for `COc1ccc(S(=O)(=O)N[C@@H]2CCN(CCOc3ccccc3OCC(F)(F)F)C2)cc1OC` [Compound 17, (R)-3,4-Dimethoxy-N-(1-{2-[(2,2,2-trifluoroethoxy)phenoxy]ethyl}pyrrolidin-3-yl)benzenesulfonamide] are 4, 105 ± 7 nM and 435 ± 21 nM.
Consider `COc1cc2nc(N3CCN(C(=O)C4CCCO4)CC3)nc(N)c2cc1OC` (stereo not shown) [terazosin, reference compound], for which, at α1D-ARs (three independent experiments), the IC50 turned out to be 0.2 nM. Further, the “α1D Profile” value at α1D-ARs is given as “ANT”. For the same molecule, the “α1B Profile” value on α1B-ARs is reported as “ANT”. For the same molecule, at α1A-ARs, the “α1A Profile” value is recorded as “ANT”.
In the case of `O=S(=O)(NCC1CCN(CCOc2ccccc2OCC(F)(F)F)CC1)c1ccc(F)cc1` [Compound 8, 4-Fluoro-N-[(1-{2-[(2,2,2-trifluoroethoxy)phenoxy]ethyl}piperidin-4-yl)methyl]benzenesulfonamide], the IC50 on α1D-ARs (three independent experiments) was determined as 1.1 nM; on α1B-ARs, 8.3 nM; on α1A-ARs it was 3.8 nM. The 50% effective concentration (EC50) at α1D-ARs (setting [5]) was in the range of 1.1 to 2.7 nM. On α1D-ARs, the “α1D Profile” value is given as “ANT”. For the same molecule, the “α1B Profile” value on α1B-ARs is “ANT”. For the same molecule, the “α1A Profile” value at α1A-ARs was “ANT”. The “Sα2/α1 (ratio of affinity for α2- and α1-ARs)” value with α1-ARs [1] was 46. For the same molecule, the Ki is 20 ± 2 nM at α1-ARs [1] and 919 ± 25 nM at α2-ARs [2].
Turning to `CC(C)Oc1ccccc1OCCN1CC[C@H](NS(=O)(=O)c2cc(Cl)ccc2F)C1` [II], the Ki was above 10000 nM at α2-ARs [3] and 242 ± 16 nM at α1-ARs [4] ([3H]-Prazosin, rat cerebral cortex, ± SEM). For the same molecule, the “Sα2/α1 (ratio of affinity for α2- and α1-ARs)” value in the test on α1-ARs [4] (Ki α2 / Ki α1) is above 41.
As to `O=S(=O)(N[C@@H]1CCN(CCOc2ccccc2OCC(F)(F)F)C1)c1ccc(F)cc1` [Compound 13, (R)-4-Fluoro-N-(1-{2-[(2,2,2-trifluoroethoxy)phenoxy]ethyl}pyrrolidin-3-yl)benzenesulfonamide], in the test on α1-ARs [1], the “Sα2/α1 (ratio of affinity for α2- and α1-ARs)” value worked out at 9; the Ki stood at 188 ± 3 nM. At α2-ARs [2], the Ki stood at 1690 ± 85 nM.
The corresponding values for `O=S(=O)(N[C@H]1CCN(CCOc2ccccc2OCC(F)(F)F)C1)c1ccc(F)cc1` [Compound 14, (S)-4-Fluoro-N-(1-{2-[(2,2,2-trifluoroethoxy)phenoxy]ethyl}pyrrolidin-3-yl)benzenesulfonamide] are above 70, 134 ± 16 nM and above 10000 nM.
